In the supplement of paper PMC10883282:

What was measured:
Assay in all cases: relative viability vs DMSO control (72 h) (fraction); higher = more viable cells
[1] = test system: SW872
Procedure, shortened: (§1)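 Sarcoma cell lines in 384-well plates, seeded to reach 80–90% confluence, were given compound after 24 h and kept 72 h at 37 °C, 5% CO2, with 0.1% DMSO vehicle and a 5 µM positive control. Relative viability came from ATPLite as percent growth, averaged over up to triplicate wells. On the rescaled values, 1 equals full and 0 equals none.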

[2] = test system: VA-ES-BJ
Procedure, shortened: as §1

[3] = test system: SW684
Procedure, shortened: as §1

[4] = test system: KHOS-NP
Procedure, shortened: as §1

[5] = test system: RD
Procedure, shortened: as §1

[6] = test system: RD-ES
Procedure, shortened: as §1

[7] = test system: MES-SA
Procedure, shortened: as §1

[8] = test system: G401
Procedure, shortened: as §1

[9] = test system: HT1080
Procedure, shortened: as §1

[10] = test system: SW1353
Procedure, shortened: as §1

[11] = test system: SK-ES-1
Procedure, shortened: as §1

[12] = test system: SK-LMS-1
Procedure, shortened: as §1

CCN1C(=O)N(c2c(F)c(OC)cc(OC)c2F)Cc2cnc3[nH]c(CN4CCOCC4)cc3c21 [Pemigatinib]
Conditions | relative viability
[1], 0.00017 µM | 1.02
[1], 0.00051 µM | 1.01
[1], 0.00152 µM | 1
[1], 0.00457 µM | 1.02
[1], 0.01372 µM | 0.999
[1], 0.04115 µM | 0.999
[1], 0.1235 µM | 0.964
[1], 0.3704 µM | 0.975
[1], 1.111 µM | 0.911
[1], 3.333 µM | 0.739
[1], 10 µM | 0.713
[2], 0.00017 µM | 1.02
[2], 0.00051 µM | 1.03
[2], 0.00152 µM | 1.023
[2], 0.00457 µM | 1.011
[2], 0.01372 µM | 1.04
[2], 0.04115 µM | 1.05
[2], 0.1235 µM | 1.036
[2], 0.3704 µM | 1.04
[2], 1.111 µM | 0.956
[2], 3.333 µM | 0.775
[2], 10 µM | 0.702
[3], 0.00017 µM | 1.1
[3], 0.00051 µM | 1.12
[3], 0.00152 µM | 1.13
[3], 0.00457 µM | 1.07
[3], 0.01372 µM | 1.12
[3], 0.04115 µM | 1.07
[3], 0.1235 µM | 1.05
[3], 0.3704 µM | 1.13
[3], 1.111 µM | 1.1
[3], 3.333 µM | 0.971
[3], 10 µM | 0.802
[4], 0.00017 µM | 1.09
[4], 0.00051 µM | 1.06
[4], 0.00152 µM | 1.088
[4], 0.00457 µM | 1.088
[4], 0.01372 µM | 1.055
[4], 0.04115 µM | 1.065
[4], 0.1235 µM | 1.07
[4], 0.3704 µM | 1.05
[4], 1.111 µM | 1.06
[4], 3.333 µM | 1.08
[4], 10 µM | 1.05
[5], 0.00017 µM | 1.02
[5], 0.00051 µM | 1.07
[5], 0.00152 µM | 1.06
[5], 0.00457 µM | 1.06
[5], 0.01372 µM | 1.04
[5], 0.04115 µM | 1.04
[5], 0.1235 µM | 1.03
[5], 0.3704 µM | 1.04
[5], 1.111 µM | 0.946
[5], 3.333 µM | 0.7043
[5], 10 µM | 0.665
[6], 0.00017 µM | 0.959
[6], 0.00051 µM | 0.951
[6], 0.00152 µM | 0.953
[6], 0.00457 µM | 0.959
[6], 0.01372 µM | 0.964
[6], 0.04115 µM | 0.955
[6], 0.1235 µM | 0.952
[6], 0.3704 µM | 0.958
[6], 1.111 µM | 0.859
[6], 3.333 µM | 0.7215
[6], 10 µM | 0.54
[7], 0.00017 µM | 0.912
[7], 0.00051 µM | 0.9387
[7], 0.00152 µM | 0.937
[7], 0.00457 µM | 0.914
[7], 0.01372 µM | 0.91
[7], 0.04115 µM | 0.826
[7], 0.1235 µM | 0.732
[7], 0.3704 µM | 0.7701
[7], 1.111 µM | 0.641
[7], 3.333 µM | 0.397
[7], 10 µM | 0.376
[8], 0.00017 µM | 0.978
[8], 0.00051 µM | 0.982
[8], 0.00152 µM | 0.93
[8], 0.00457 µM | 0.8789
[8], 0.01372 µM | 0.746
[8], 0.04115 µM | 0.7
[8], 0.1235 µM | 0.614
[8], 0.3704 µM | 0.585
[8], 1.111 µM | 0.518
[8], 3.333 µM | 0.379
[8], 10 µM | 0.349
[9], 0.00017 µM | 1.05
[9], 0.00051 µM | 1.09
[9], 0.00152 µM | 1.06
[9], 0.00457 µM | 1.06
[9], 0.01372 µM | 1.036
[9], 0.04115 µM | 1.1
[9], 0.1235 µM | 1.09
[9], 0.3704 µM | 1.07
[9], 1.111 µM | 1.104
[9], 3.333 µM | 0.875
[9], 10 µM | 0.807
[10], 0.00017 µM | 1.06
[10], 0.00051 µM | 1.02
[10], 0.00152 µM | 1.02
[10], 0.00457 µM | 0.964
[10], 0.01372 µM | 0.886
[10], 0.04115 µM | 0.879
[10], 0.1235 µM | 0.863
[10], 0.3704 µM | 0.843
[10], 1.111 µM | 0.836
[10], 3.333 µM | 0.716
[10], 10 µM | 0.539
[11], 0.00017 µM | 0.969
[11], 0.00051 µM | 0.963
[11], 0.00152 µM | 0.989
[11], 0.00457 µM | 0.965
[11], 0.01372 µM | 0.935
[11], 0.04115 µM | 0.972
[11], 0.1235 µM | 0.89
[11], 0.3704 µM | 0.816
[11], 1.111 µM | 0.599
[11], 3.333 µM | 0.354
[11], 10 µM | 0.2767
[12], 0.00017 µM | 1.05
[12], 0.00051 µM | 1.09
[12], 0.00152 µM | 1.105
[12], 0.00457 µM | 1.08
[12], 0.01372 µM | 1.09
[12], 0.04115 µM | 1.07
[12], 0.1235 µM | 1.07
[12], 0.3704 µM | 1.07
[12], 1.111 µM | 0.9589
[12], 3.333 µM | 0.667
[12], 10 µM | 0.528
